In PubChem BioAssay (NCI) one finds TGI and GI50 data, which are given here for 27 compounds.

Where “and” joins values, the source holds several entries; their conditions need not be identical. Identical values can stand only once.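 Following 48 hours of exposure in 96-well plates, responses at five concentrations were used to interpolate endpoints linearly. GI50 = concentration required for 50% inhibition of growth. TGI denotes the concentration required for complete inhibition of growth.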

Common to all, as to assay: NCI tumour cell line growth inhibition, 48 h
In experiment [1] the test system is M19-MEL melanoma.
For experiment [2], the system named is KM20L2 colon.
Experiment [3] relates to HT29 colon.
The subject of experiment [4] is DMS 273 small cell lung.
Experiment [5] concerns SNB-78 CNS.
Experiment [6] deals with A549 NSCLC.
Experiment [7] deals with SR leukemia.
In experiment [8] the test system is HOP-18 NSCLC.
Experiment [9] deals with LXFL 529 NSCLC.
Experiment [10] has as its system DMS 114 small cell lung.
Experiment [11] relates to HCT-15 colon.
The subject of experiment [12] is DLD-1 colon.
The subject of experiment [13] is XF 498 CNS.
The subject of experiment [14] is T-47D breast.
For experiment [15], the system named is RXF-631 renal.

As for `O=C1CCC(c2ccc(Cl)cc2)=NN1c1nsc2ccccc12`, the TGI is more than 100 µM in experiment [1]; more than 100 µM in experiment [2]; more than 100 µM in [3]; 74.5 µM in experiment [4]; 78.7 µM in [5]; more than 100 µM in [6]. Moreover, the TGI is 54.8 µM in experiment [7], more than 100 µM in experiment [8], 81.4 µM in experiment [9] and 87.9 µM in [10].
On to `NC(N)=N/N=C/c1c[nH]c2ccccc12`, for which the TGI in experiment [11], in experiment [2], in experiment [3], in experiment [12], in experiment [4] and in [5] was more than 100 µM in each case. The TGI in [6], in [7], in [8], in experiment [9] and in [10] was more than 100 µM throughout.
For `N#CC(NC12CC3CC(CC(C3)C1)C2)c1ccccc1C(F)(F)F` (stereo unspecified), the TGI in [13], in experiment [1], in [11], in [2], in [3] and in [12] was more than 100 µM each time. Besides, the TGI in experiment [4], in [6], in experiment [7], in experiment [8], in [9] and in [10] was more than 100 µM throughout.
For the compound `CSc1ncnc2c1ncn2C1CC(Oc2ccc(C)cc2)C(COc2ccc(C)cc2)O1` (stereo unspecified), the TGI in [11], in [3], in experiment [14], in experiment [6] and in experiment [7] was more than 100 µM throughout.
Take `CC1=NNC(N)=N/C1=C\C(Sc1ccc(Cl)cc1)c1ccc([N+](=O)[O-])cc1` (stereo unspecified): the TGI in experiment [11], in experiment [3], in experiment [14], in experiment [6] and in experiment [7] was more than 100 µM each time.
As for `COCN(CCC1=CCCCC1)C(=O)OC`, the TGI in experiment [11], in [3], in experiment [14], in experiment [6] and in experiment [7] was more than 100 µM throughout.
For `COC1C=CC(O)C(CO)O1` (stereo unspecified), the TGI in experiment [13], in [1], in [11], in [2], in experiment [3] and in experiment [12] was more than 100 µM each time. Moreover, the TGI in [5], in experiment [6], in experiment [7] and in experiment [9] was more than 100 µM throughout.
For the compound `C=CCCN1CCc2c([nH]c3ccccc23)C1C(=O)O` (stereo unspecified), the TGI in experiment [13], in [1], in [15], in experiment [2], in experiment [3] and in experiment [12] was more than 100 µM each time. Moreover, the TGI in [4], in experiment [5], in experiment [6], in experiment [7], in experiment [9] and in experiment [10] was more than 100 µM in each case.
For the compound `Cc1ccc(SCC(CF)OC(C)n2cnc3c(=O)[nH]c(N)nc32)cc1` (stereo unspecified), the TGI in [11], in [3], in [14], in experiment [6] and in experiment [7] was more than 100 µM in each case.
For the compound `O=C1/C(=C/c2ccc([N+](=O)[O-])cc2)C(=O)N(c2ccccc2)C1c1ccccc1` (stereo unspecified), the TGI in experiment [11], in experiment [3], in experiment [14], in [6] and in [7] was more than 10 µM each time.
Take `CON(C)C(=O)CNC(=O)OCC1c2ccccc2-c2ccccc21`: the TGI in [11] was more than 100 µM; in experiment [3], more than 100 µM; in [14], more than 100 µM; in experiment [6] it was more than 100 µM; in [7], 69.6 µM.
For `O=C(c1ccc(N=Cc2ccccc2O)cc1)c1ccc(N=Cc2ccccc2O)cc1`, the TGI in experiment [11], in experiment [3], in [14], in experiment [6] and in experiment [7] was more than 100 µM throughout.
`CCOC(=O)/C=C(/C(=O)OCC)n1ccc(=O)n(Cc2cn(COCCOC(C)=O)nn2)c1=O`: the TGI is 55.6 µM in experiment [11]; 31.9 µM in [3]; 81 µM in experiment [14]; more than 100 µM in [6]; 52.6 µM in experiment [7].
Regarding `Cc1cccc(N=NC(=O)NNc2cccc(C)c2C)c1C`, the TGI in experiment [11], in experiment [3], in experiment [14], in [6] and in [7] was more than 100 µM throughout.
Regarding `COC1=C(OC)C(=O)C(Cc2c(C)nc3sc(C)cn23)=C(C)C1=O`, the TGI in experiment [11] was 96.4 µM; in [3], 40.6 µM; in experiment [14] it was more than 100 µM; in [6], 49.5 µM; in [7], 43.1 µM.
Regarding `O=C(N/N=C\c1cccc2c([N+](=O)[O-])cccc12)Nc1ccccc1`, the TGI is 25.5 µM in experiment [11]; 34.7 µM in experiment [3]; 20.4 µM in experiment [14]; 28.3 µM in [6]; 43.3 µM in [7].
Take `O=C1C(CN2CCCCC2)CCC1CN1CCCCC1` (stereo unspecified): the TGI in experiment [11] was 47.4 µM; in [3], 40.4 µM; in experiment [14], 36.5 µM; in [6], more than 100 µM; in experiment [7], 3.75 µM.
Turning to `N=C(N)c1ccc(C(NC(=O)CNS(=O)(=O)c2ccc3ccccc3c2)P(=O)(Oc2ccccc2)Oc2ccccc2)cc1` (stereo unspecified), the TGI in experiment [11], in [3], in [14], in experiment [6] and in experiment [7] was more than 100 µM throughout.
Regarding `CSc1ccc2c(cc1=O)[C@@H](NC(=O)c1ccc(N)cc1)CCc1cc(O)c(O)c(O)c1-2`, the TGI in experiment [11] was 26 µM and 42.4 µM; in experiment [3] it was 30.5 µM and 9.94 µM; in [14], more than 100 µM; in experiment [6] it was 49.7 µM and 64.9 µM; in experiment [7], more than 100 µM. Moreover, the GI50 in experiment [3] was 13.3 µM and 2.57 µM.
Consider `Cn1cc(NC(=O)c2cc(NC(=O)CN=C(N)N)cn2C)cc1C(=O)NCCC(=N)N`, for which the TGI in [11], in [3], in experiment [14], in [6] and in experiment [7] was more than 100 µM in each case.
For the compound `c1ccc2c(c1)ccn2CCc1c[nH]c2ccccc12`, the TGI in experiment [11], in [3], in experiment [14], in experiment [6] and in experiment [7] was more than 10 µM throughout.
`CCOP(C)(=O)C(N)Cc1ccc(OC)c(OC)c1` (stereo unspecified): the TGI in experiment [11], in experiment [3], in [14], in experiment [6] and in [7] was more than 100 µM in each case.
As for `COc1ccc2ccccc2c1/C=C/C(=O)c1ccccc1`, the TGI in [11] is more than 35.8 µM; in experiment [3], 12.4 µM; in experiment [14], 8.32 µM; in experiment [6], 10.4 µM; in experiment [7] it was 2.55 µM.
Regarding `CCOC(=O)CNc1c(OCc2ccccc2)c(=O)c1=O`, the TGI in experiment [11], in [3], in experiment [14], in [6] and in experiment [7] was more than 100 µM each time.
Consider `O=c1cc(-c2ccc(F)cc2)[nH]c2ncc(Cl)cc12`, for which the TGI in experiment [11] was more than 100 µM; in [3] it was more than 100 µM; in experiment [14], more than 100 µM; in experiment [6], more than 100 µM; in [7], 23.7 µM.
As to `CC(=O)OCC12C(=O)C[C@@H](C)C3(CC(c4ccoc4)OC3=O)C1CCC(OC(C)=O)C21CO1` (stereo partly specified), the TGI in experiment [11], in experiment [3], in experiment [14], in experiment [6] and in experiment [7] was more than 100 µM throughout.
With `Cc1ccc([N+](=O)[O-])cc1S(=O)(=O)Nc1ccc(C2=NNC(c3ccccc3)C2)cc1` (stereo unspecified), the TGI in experiment [11] is 62.1 µM; in [3], more than 100 µM; in experiment [14], 28.5 µM; in experiment [6], more than 100 µM; in experiment [7], 48.7 µM.
